Series [1] deals with LNCaP cells. In words: Percentage of intact cells (Hoechst 33342 / propidium iodide counting), LNCaP. The format is cell-based, human. The settings on record: for Effect of caspase inhibitor on LCA-induced cell death: 24 h co-exposure, 40 µM LCA + 10 µM inhibitor; for Concentrations decreasing cell viability / number of intact cells: 48 h, tested 10–500 µM. The procedure: (§1) For apoptotic and necrotic cell death measurements, LNCaP and PC-3 cells were seeded at densities of 1 × 10^5 and 0.5 × 10^5 cells/ml, respectively, in 24-well plates in 2% stripped-FBS. Cells were then treated with several concentrations of bile acids in the presence (LNCaP) or absence (PC-3) of 0.1 nM DHT. […] After a 15 min incubation at 37°C, cells were observed and counted under a Nikon Eclipse (TE-2000U) inverted fluorescent microscope at 20× magnification. […] To measure mitochondrial membrane potential (MMP), cells were treated with LCA for 1, 4 or 8 h, and tetramethylrhodamine ethyl ester (TMRE) was added to each well at a final concentration of 50 nM. TMRE is a cell permeable, positively charged dye that accumulates in active negatively charged mitochondria.
(§2) All experiments were performed in at least triplicate using cells after various passages and the data are presented as mean ± SEM. Statistically significant differences (p < 0.05) between various treatments and untreated cells were determined using a two-tailed Student t-test with Bonferroni correction for multiple comparisons. IC50 values for inhibition of cell viability were calculated using a sigmoidal curve-fitting model of log-inhibitor concentration versus normalized inhibition response, with variable slope (GraphPad Prism v5.03, GraphPad Software, San Diego, CA).

Series [2] relates to PC-3 cells. The series can be described thus: Percentage of intact cells (Hoechst 33342 / propidium iodide counting), PC-3. The format is cell-based, human. The settings on record: for Effect of caspase inhibitor on LCA-induced cell death: PC-3, 24 h co-exposure, 50 µM LCA + 10 µM inhibitor; for Concentrations decreasing cell viability / number of intact cells: PC-3, 48 h, tested 10–500 µM. The procedure: as §1, §2

For series [3], the system named is PC-3 cells. Further details: method as in Choi et al., 2003. The settings on record: ref Choi et al., 2003; cited from earlier work.
Series [4] relates to caspase-8. In words: Caspase-8 activity (Ac-IETD-AFC cleavage) in PC-3 cell extracts. The settings on record: PC-3, 24 h, 25–75 µM. The class given is cell-based, human. The procedure:
(§3) PC-3 and LNCaP cells were seeded in 6-well plates at densities of 400000 or 750000 cells per well, respectively, in 0.5 ml culture medium containing 2% stripped FBS and 24 h later they were exposed to various concentrations of LCA in fresh medium for another 24 h. Proteins were then extracted from harvested cells using 1× RIPA buffer (Millipore, Billerica, MA) containing 1× protease inhibitor cocktail, centrifuged at 13,000 g for 5 min at 4°C to remove cell debris, and frozen at −80°C overnight. Protein concentrations were then quantified using a BCA protein detection kit (Thermo Scientific, Waltham, MA). Caspase activities were determined using fluorogenic caspase substrates selective for either caspase-3 (5 µM Ac-DEVD-AFC), caspase-9 (10 µM Ac-LEHD-AFC) or caspase-8 (10 µM Ac-IETD-AFC) in 10 µg of extracted protein suspended in caspase reaction buffer (20 mM PIPES at pH 7.2, 30 mM NaCl, 10 mM DTT, 1 mM EDTA, 0.1% CHAPS, 10% sucrose). The time-dependent release of 7-amino-4-trifluoromethyl coumarin (AFC) was measured using a SpectroMax M5 microplate reader (Molecular Devices, Sunnydale, CA) at an excitation wavelength of 400 nm and an emission wavelength of 505 nm. Measurements were recorded at 2 min intervals for 90 min. A standard curve of AFC fluorescence was used to calculate the amount of AFC released (in picomoles) during each reaction.

For series [5], the system named is caspase-9. In words: Caspase-9 activity (Ac-LEHD-AFC cleavage) in PC-3 cell extracts. The format is cell-based, human. The settings on record: PC-3, 24 h, 25–75 µM. The procedure:
as §3

Series [6] relates to caspase-9. The series can be described thus: Caspase-9 activity (Ac-LEHD-AFC cleavage) in LNCaP cell extracts. The format is cell-based, human. The conditions noted are these: 24 h, 25–75 µM. The procedure: as §3
Series [7] has as its system PC-3 cells. In words: Western blot of apoptosis proteins, PC-3. The class given is cell-based, human. The settings on record: PC-3, 24 h. The procedure: (§4) Crude protein extracts (50 µg) were resolved by electrophoresis using 10% sodium dodecyl sulfate-polyacrylamide gels and then transferred to a PVDF Immobilon-P membrane (Bio-Rad, Mississauga, ON). Blots were blocked using 5% milk powder (Selection brand, Marché Jean-Talon, Montréal, QC) and incubated with antibodies as follows: 1:250 dilution for anti-caspase-3, 1:1000 for anti-cleaved PARP, 1:1000 for anti-Bcl-2, 1:1000 for anti-Bax, and 1:1000 for anti-Bid. Immunoreactive proteins were exposed to anti-rabbit horseradish peroxidise-conjugated secondary antibodies (Millipore) that were diluted 1:5000. Antigen-antibody complexes were detected using Immobilon ECL Western Chemiluminescent HRP Substrate (Millipore) and recorded with a Versadoc imaging system (Bio-Rad). Total protein content per well was determined using 1 × Amido Black staining solution (Sigma-Aldrich).
In general terms: Immunoblotting shows a protein as a band on a membrane.

The test system of series [8] is PC-3 human prostate cancer cells. In words: Extra/intracellular distribution by mass spectrometry, PC-3. The format is in vitro ADME. The conditions noted are these: for % of compound recovered, Cells / % of compound recovered, Medium: 24 h, mean ± SD. The procedure:
(§5) Mass spectrometry-based analysis of LCA and UDCA was performed as previously reported ([Bourque & Titorenko, 2009]). […] The extracted lipids were dried under nitrogen and resuspended in chloroform. Immediately prior to injection the extracted lipids were combined with a 2:1 methanol:chloroform mixture supplemented with 0.1% (v/v) ammonium hydroxide. The sample was injected directly into a Thermo Orbitrap Velos equipped with a HESI-II ion source (Thermo Scientific, Waltham, MA, USA) at a flow rate of 5 µl/min. Spectra were obtained in negative-ion mode. The source voltage was set to 4.0 kV, a capillary temperature of 275°C, a sheath gas flow of 5 (arbitrary units) and an auxiliary gas flow of 1 (arbitrary units). Acquired spectra were exported from Xcalibur software (Thermo Scientific) and then deconvoluted and deisotoped using Excel macros.

Series [9] has as its system LNCaP cells. In words: Western blot of apoptosis proteins, LNCaP. The format is cell-based, human. The settings on record: 24 h, 25–75 µM. The procedure:
as §4

The test system of series [10] is LNCaP cells. The series can be described thus: DHT-stimulated LNCaP cell proliferation (real-time impedance, E-plates). The class given is cell-based, human.
The subject of a further series is RWPE-1 cells. The series can be described thus: Percentage of intact cells (Hoechst 33342 / propidium iodide counting), RWPE-1. The class given is cell-based, human. The conditions noted are these: RWPE-1, 48 h, 50 or 75 µM.
Series [11] deals with PC-3 cells. The series can be described thus: Mitochondrial membrane potential (TMRE), PC-3. The conditions noted are these: PC-3, 75 µM, as early as after 1 h. The class given is cell-based, human.
For series [12], the system named is caspase-8. The series can be described thus: Caspase-8 activity (Ac-IETD-AFC cleavage) in LNCaP cell extracts. The class given is cell-based, human. The conditions noted are these: 24 h, 25–75 µM. The procedure:
as §3

The subject of series [13] is LNCaP human prostate cancer cells. The series can be described thus: Extra/intracellular distribution by mass spectrometry, LNCaP. The format is in vitro ADME. The conditions noted are these: for % of compound recovered, Cells / % of compound recovered, Medium: LNCaP, 24 h, mean ± SD. The procedure: as §5
Series [14] relates to caspase-3. In words: Caspase-3 activity (Ac-DEVD-AFC cleavage) in PC-3 cell extracts. The format is cell-based, human. The settings on record: PC-3, 24 h, 25–75 µM. The procedure:
as §3

Series [15] relates to caspase-3. In words: Caspase-3 activity (Ac-DEVD-AFC cleavage) in LNCaP cell extracts. The format is cell-based, human. The conditions noted are these: 24 h, 25–75 µM. The procedure:
as §3

Take z-DEVD-fmk: the “Effect of caspase inhibitor on LCA-induced cell death” value with LNCaP cells [1] and in the series with PC-3 cells [2] was “partially inhibited” in each case.
Take `C[C@H](CCC(=O)O)[C@H]1CC[C@H]2[C@@H]3[C@H](O)C[C@@H]4C[C@H](O)CC[C@]4(C)[C@H]3CC[C@]12C` [CDCA, chenodeoxycholic acid]: the “Concentrations decreasing cell viability / number of intact cells” value in the series on LNCaP cells [1] and in the series with PC-3 cells [2] was “above 100 µM” in each case. The “Concentrations that did not result in significant cell death” value with PC-3 cells [3] is above 100 µM.
Take `C[C@H](CCC(=O)O)[C@H]1CC[C@H]2[C@@H]3[C@H](O)C[C@@H]4C[C@H](O)CC[C@]4(C)[C@H]3C[C@H](O)[C@]12C` [CA, cholic acid]: the “Concentrations decreasing cell viability / number of intact cells” value in the series with LNCaP cells [1] and in the series with PC-3 cells [2] was above 500 µM each time.
On to `C[C@H](CCC(=O)O)[C@H]1CC[C@H]2[C@@H]3CC[C@@H]4C[C@H](O)CC[C@]4(C)[C@H]3C[C@H](O)[C@]12C` [DCA, deoxycholic acid], for which the “Concentrations decreasing cell viability / number of intact cells” value in the series with LNCaP cells [1] and with PC-3 cells [2] was “above 100 µM” each time.
For `C[C@H](CCC(=O)O)[C@H]1CC[C@H]2[C@@H]3CC[C@@H]4C[C@H](O)CC[C@]4(C)[C@H]3CC[C@]12C` [LCA, Lithocholic acid], the “Levels of active caspase-8” value in the series with caspase-8 [4] and in the series with caspase-8 [12] was “increased levels” in each case. Further, the Caspase-9 activity result in the series with caspase-9 [5] and with caspase-9 [6] was “statistically significant increases” throughout. Further, the IC50 in the series with LNCaP cells [1] (Homo sapiens, 48 h treatment, with 0.1 nM DHT, read-out: IC50 for decrease in number of intact cells) was determined as 40.5 ± 0.07 µM; in the series on LNCaP cells [10] (Homo sapiens, LNCaP, co-treated with 0.1 nM DHT, 72 h, read-out: IC50 for inhibition of proliferation of androgen-stimulated cells), 8.5 µM; in the series on PC-3 cells [2] (Homo sapiens, PC-3, 48 h treatment, read-out: IC50 for decrease in number of intact cells) it was 74.9 ± 0.25 µM. The “Levels of 89 kDa PARP fragment elevated” value with PC-3 cells [7] is “not in PC-3 cells”. The Bcl-2 levels entry in the series on PC-3 cells [7] (25–75 µM) is “decreased levels”. In addition, the “Effect on pro-apoptotic proteins Bax and Bid” value in the series on PC-3 cells [7] (25–75 µM) and in the series on LNCaP cells [9] was “cleavage” throughout. Also, the “Levels of cleaved, active 17 and 20 kDa caspase-3 subunits” value with PC-3 cells [7] (25–75 µM) and in the series on LNCaP cells [9] was “increased levels” each time. Further, the “% of compound recovered, Cells” value in series [8] (PC-3, 50 µM) is on record as 2.09 ± 0.05%; in [8] (PC-3, 75 µM) it was 2.39 ± 1.93%; in series [13] (25 µM), 2.72 ± 1.10%; in series [13] (50 µM), 5.85 ± 2.45%. The “% of compound recovered, Medium” value in [8] (PC-3, 50 µM) was 97.91 ± 0.05%; in [8] (PC-3, 75 µM) it was 97.61 ± 1.93%; in series [13] (25 µM), 97.28 ± 1.10%; in series [13] (50 µM), 94.15 ± 2.45%. Further, the “% of nominal concentration present in extracellular medium” value in series [8] (PC-3 cultures after 24 h) and in [13] (LNCaP cultures after 24 h) was at most 98% throughout. In addition, the “Levels of 89 kDa PARP fragment” value in the series on LNCaP cells [9] is “significantly elevated”. In the series on LNCaP cells [10] (well below those needed to induce apoptosis), the “Concentrations that inhibit proliferation of AD prostate cancer cells” value lay in the range of 2.5 to 10 µM. In addition, the “Effect on viability of non-tumorigenic cells” value in the series with RWPE-1 cells is reported as “without decreasing the viability”. In addition, in the series with PC-3 cells [11], the “Change in mitochondrial membrane potential (MMP)” value is “marked decrease”. Also, the “Catalytic activity of caspase-3” value in the series with caspase-3 [14] and in the series with caspase-3 [15] was “increased” each time.
As to `C[C@H](CCC(=O)O)[C@H]1CC[C@H]2[C@@H]3[C@@H](O)C[C@@H]4C[C@H](O)CC[C@]4(C)[C@H]3CC[C@]12C` [UDCA, ursodeoxycholic acid, reference compound], the “Concentrations decreasing cell viability / number of intact cells” value in the series with LNCaP cells [1] and in the series on PC-3 cells [2] was “above 300 µM” throughout. Also, the “% of compound recovered, Cells” value in series [8] (PC-3, 50 µM) is reported as 2.44 ± 0.17%; in series [8] (PC-3, 75 µM), 2.43 ± 0.67%; in [13] (25 µM), 9.60 ± 3.86%; in series [13] (50 µM) it was 4.23 ± 0.10%. Besides, the “% of compound recovered, Medium” value in series [8] (PC-3, 50 µM) turned out to be 97.56 ± 0.17%; in series [8] (PC-3, 75 µM), 97.57 ± 0.67%; in series [13] (25 µM), 90.40 ± 3.86%; in [13] (50 µM), 95.77 ± 0.10%. The “Concentrations that did not result in significant cell death” value with PC-3 cells [3] is recorded as above 100 µM.
Take `C[C@H](CCC(=O)O)[C@H]1CC[C@H]2[C@@H]3C[C@H](O)[C@@H]4C[C@H](O)CC[C@]4(C)[C@H]3CC[C@]12C` [HDCA, hyodeoxycholic acid]: the “Concentrations decreasing cell viability / number of intact cells” value in the series with LNCaP cells [1] and in the series on PC-3 cells [2] was “above 300 µM” each time.
In the case of z-IETD-fmk, the “Effect of caspase inhibitor on LCA-induced cell death” value with LNCaP cells [1] and with PC-3 cells [2] was “alleviated” each time.

(Values after article PMC3740138, “Bile acids induce apoptosis selectively in androgen-dependent and -independent prostate cancer cells” (PeerJ, 2013).)
